Laboratory results published in patent publication US20240293413A1, “COMPOUND AND METHOD FOR TREATING CHEMOTHERAPY-RELATED GASTROINTESTINAL SIDE EFFECTS” (ONQUALITY PHARMACEUTICALS CHINA LTD., priority 2021, published 2024).

How the values were obtained:
Type in all cases: in vivo
[1] = test system: Chemotherapeutic agent-caused constipation models of Balb/c mice; experiment: Examples 272-342 (Table 5): oral CDK inhibitor, relief of constipation caused by a chemotherapeutic agent;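 note: percent of treated mice relieved versus chemotherapy group by feces reduction rate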
Outline: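 Balb/c mice, 10 per group: control, chemotherapeutic agent alone, or intragastric CDK inhibitor followed by the chemotherapeutic agent. Feces produced within 3 hours were recorded daily, and feces reduction rate (%) was calculated relative to the control group.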

[2] = test system: diarrhea caused by a chemotherapeutic agent in Balb/c mice; experiment: Examples 382-405 (Table 7): various administration modes of the CDK inhibitor, relief of diarrhea caused by a chemotherapeutic agent
Outline: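 Balb/c mice (10 per group) received a CDK inhibitor by oral gavage, intraperitoneal, intramuscular or topical (shaved abdomen) dosing, followed by a chemotherapeutic agent. Vehicle and chemotherapy-only groups served as controls. Diarrhea was graded daily.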

[3] = test system: diarrhea caused by a chemotherapeutic agent in Balb/c mice; experiment: Examples 230-271 (Table 4): oral CDK inhibitor, relief of diarrhea caused by a chemotherapeutic agent
Outline: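 Balb/c mice, 10 per group (vehicle, chemotherapeutic agent, CDK inhibitor plus chemotherapeutic); CDK inhibitor dosed intragastrically before the chemotherapeutic agent by injection or gavage. Diarrhea graded daily.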

CN1CCN(c2ccc(Nc3ncc4cc5n(c4n3)C3(CCCCC3)CNC5=O)nc2)CC1 [Trilaciclib (G1T28), Trilaciclib]
80%: Relative remission rate ([1]; Example 327, Cytarabine (Ara-C) intraperitoneal injection 600 mg/kg single, CDK inhibitor oral 100 mg/kg single, 0.5 h before, cycle 8 days) | Relative remission rate ([3]; Example 255, Cytarabine (Ara-C) intraperitoneal injection 600 mg/kg single, CDK inhibitor oral 100 mg/kg single, 4 h before, cycle 8 days) | Relative remission rate ([3]; Example 256, Cytarabine (Ara-C) intraperitoneal injection 600 mg/kg single, CDK inhibitor oral 100 mg/kg single, 8 h before, cycle 8 days)
can relieve diarrhea: relief of diarrhea by oral, injection and local administration ([2]; diarrhea caused by docetaxel, carboplatin, gemcitabine, and gemcitabine plus carboplatin, under certain conditions, effect of oral administration most significant)
20%: Relative remission rate of other administration mode ([2]; Example 395, Carboplatin (CBP) oral administration 200 mg/kg single, CDK inhibitor local administration 100 mg/kg single, 24 h before, cycle 10 days) | Relative remission rate of other administration mode ([2]; Example 404, Gemcitabine and carboplatin intraperitoneal injection 120 (G) 100 (C) mg/kg single, CDK inhibitor intramuscular injection 100 mg/kg single, 12 h before, cycle 8 days)
60%: Relative remission rate ([1]; Example 276, Fluorouracil (5-Fu) intraperitoneal injection 175 mg/kg single, CDK inhibitor oral 100 mg/kg single, 4 h before, cycle 7 days) | Relative remission rate ([1]; Example 278, Fluorouracil (5-Fu) intraperitoneal injection 175 mg/kg single, CDK inhibitor oral 100 mg/kg single, 6 h before, cycle 7 days) | Relative remission rate ([1]; Example 281, Fluorouracil (5-Fu) intraperitoneal injection 175 mg/kg single, CDK inhibitor oral 100 mg/kg single, 9 h before, cycle 7 days) | Relative remission rate ([1]; Example 282, Fluorouracil (5-Fu) intraperitoneal injection 175 mg/kg single, CDK inhibitor oral 100 mg/kg single, 10 h before, cycle 7 days) | Relative remission rate ([1]; Example 286, Fluorouracil (5-Fu) intraperitoneal injection 175 mg/kg single, CDK inhibitor oral 100 mg/kg single, 14 h before, cycle 7 days) | Relative remission rate ([1]; Example 288, Fluorouracil (5-Fu) intraperitoneal injection 175 mg/kg single, CDK inhibitor oral 100 mg/kg single, 18 h before, cycle 7 days) | Relative remission rate ([1]; Example 311, Irinotecan (CPT-11) intramuscular injection 260 mg/kg single, CDK inhibitor oral 50 mg/kg single, 1 h before, cycle 7 days) | Relative remission rate ([1]; Example 314, Fluorouracil and oxaliplatin and irinotecan intraperitoneal injection 70 (F) 5 (O) 100 (I) mg/kg single, CDK inhibitor oral 180 mg/kg single, 12 h before, cycle 10 days) | Relative remission rate ([1]; Example 323, Docetaxel (DTX) intravenous injection 10 mg/kg single, CDK inhibitor oral 100 mg/kg single, 9 h before, cycle 8 days) | Relative remission rate ([1]; Example 328, Cytarabine (Ara-C) intraperitoneal injection 600 mg/kg single, CDK inhibitor oral 100 mg/kg single, 4 h before, cycle 8 days) | Relative remission rate of oral administration ([2]; Example 395, Carboplatin (CBP) oral administration 200 mg/kg single, CDK inhibitor oral 100 mg/kg single, 24 h before, cycle 10 days) | Relative remission rate of oral administration ([2]; Example 404, Gemcitabine and carboplatin intraperitoneal injection 120 (G) 100 (C) mg/kg single, CDK inhibitor oral 150 mg/kg single, 12 h before, cycle 8 days) | Relative remission rate ([3]; Example 237, Doxorubicin (Dox) intravenous injection 12 mg/kg single, CDK inhibitor oral 180 mg/kg single, 12 h before, cycle 10 days) | Relative remission rate ([3]; Example 238, Doxorubicin (Dox) intravenous injection 12 mg/kg single, CDK inhibitor oral 180 mg/kg single, 24 h before, cycle 10 days) | Relative remission rate ([3]; Example 254, Cytarabine (Ara-C) intraperitoneal injection 600 mg/kg single, CDK inhibitor oral 100 mg/kg single, 0.5 h before, cycle 8 days) | Relative remission rate ([3]; Example 257, Cytarabine (Ara-C) intraperitoneal injection 600 mg/kg single, CDK inhibitor oral 100 mg/kg single, 12 h before, cycle 8 days)
0%: Relative remission rate ([1]; Example 292, Fluorouracil (5-Fu) intraperitoneal injection 175 mg/kg single, CDK inhibitor oral 100 mg/kg single, 48 h before, cycle 7 days) | Relative remission rate ([1]; Example 332, Cytarabine (Ara-C) intraperitoneal injection 600 mg/kg single, CDK inhibitor oral 100 mg/kg single, 48 h before, cycle 8 days) | Relative remission rate ([3]; Example 239, Doxorubicin (Dox) intravenous injection 12 mg/kg single, CDK inhibitor oral 180 mg/kg single, 48 h before, cycle 10 days) | Relative remission rate ([3]; Example 259, Cytarabine (Ara-C) intraperitoneal injection 600 mg/kg single, CDK inhibitor oral 100 mg/kg single, 48 h before, cycle 8 days)
70%: Relative remission rate ([1]; Example 279, Fluorouracil (5-Fu) intraperitoneal injection 175 mg/kg single, CDK inhibitor oral 100 mg/kg single, 7 h before, cycle 7 days) | Relative remission rate ([1]; Example 280, Fluorouracil (5-Fu) intraperitoneal injection 175 mg/kg single, CDK inhibitor oral 100 mg/kg single, 8 h before, cycle 7 days) | Relative remission rate ([1]; Example 284, Fluorouracil (5-Fu) intraperitoneal injection 175 mg/kg single, CDK inhibitor oral 100 mg/kg single, 12 h before, cycle 7 days)
30%: Relative remission rate ([1]; Example 290, Fluorouracil (5-Fu) intraperitoneal injection 175 mg/kg single, CDK inhibitor oral 100 mg/kg single, 22 h before, cycle 7 days) | Relative remission rate ([1]; Example 291, Fluorouracil (5-Fu) intraperitoneal injection 175 mg/kg single, CDK inhibitor oral 100 mg/kg single, 24 h before, cycle 7 days)
50%: Relative remission rate ([1]; Example 272, Fluorouracil (5-Fu) intraperitoneal injection 175 mg/kg single, CDK inhibitor oral 100 mg/kg single, 0.5 h before, cycle 7 days) | Relative remission rate ([1]; Example 273, Fluorouracil (5-Fu) intraperitoneal injection 175 mg/kg single, CDK inhibitor oral 100 mg/kg single, 1 h before, cycle 7 days) | Relative remission rate ([1]; Example 274, Fluorouracil (5-Fu) intraperitoneal injection 175 mg/kg single, CDK inhibitor oral 100 mg/kg single, 2 h before, cycle 7 days) | Relative remission rate ([1]; Example 283, Fluorouracil (5-Fu) intraperitoneal injection 175 mg/kg single, CDK inhibitor oral 100 mg/kg single, 11 h before, cycle 7 days) | Relative remission rate ([1]; Example 287, Fluorouracil (5-Fu) intraperitoneal injection 175 mg/kg single, CDK inhibitor oral 100 mg/kg single, 16 h before, cycle 7 days) | Relative remission rate ([1]; Example 289, Fluorouracil (5-Fu) intraperitoneal injection 175 mg/kg single, CDK inhibitor oral 100 mg/kg single, 20 h before, cycle 7 days) | Relative remission rate of oral administration ([2]; Example 405, Gemcitabine and carboplatin intraperitoneal injection 120 (G) 100 (C) mg/kg single, CDK inhibitor oral 150 mg/kg single, 24 h before, cycle 8 days) | Relative remission rate ([3]; Example 270, Vinorelbine (NVB) intramuscular injection 10 mg/kg single, CDK inhibitor oral 50 mg/kg single, 1 h before, cycle 7 days)
10%: Relative remission rate of other administration mode ([2]; Example 402, Gemcitabine (GEM) intramuscular injection 120 mg/kg single, CDK inhibitor intramuscular injection 50 mg/kg single, 24 h before, cycle 8 days) | Relative remission rate of other administration mode ([2]; Example 405, Gemcitabine and carboplatin intraperitoneal injection 120 (G) 100 (C) mg/kg single, CDK inhibitor intramuscular injection 100 mg/kg single, 24 h before, cycle 8 days)
40%: Relative remission rate ([1]; Example 275, Fluorouracil (5-Fu) intraperitoneal injection 175 mg/kg single, CDK inhibitor oral 100 mg/kg single, 3 h before, cycle 7 days) | Relative remission rate ([1]; Example 277, Fluorouracil (5-Fu) intraperitoneal injection 175 mg/kg single, CDK inhibitor oral 100 mg/kg single, 5 h before, cycle 7 days) | Relative remission rate ([1]; Example 285, Fluorouracil (5-Fu) intraperitoneal injection 175 mg/kg single, CDK inhibitor oral 100 mg/kg single, 13 h before, cycle 7 days) | Relative remission rate ([1]; Example 303, Fluorouracil and oxaliplatin intraperitoneal injection 100 (F) 10 (O) mg/kg single, CDK inhibitor oral 100 mg/kg single, 24 h before, cycle 10 days) | Relative remission rate ([1]; Example 329, Cytarabine (Ara-C) intraperitoneal injection 600 mg/kg single, CDK inhibitor oral 100 mg/kg single, 8 h before, cycle 8 days) | Relative remission rate ([1]; Example 330, Cytarabine (Ara-C) intraperitoneal injection 600 mg/kg single, CDK inhibitor oral 100 mg/kg single, 12 h before, cycle 8 days) | Relative remission rate ([1]; Example 331, Cytarabine (Ara-C) intraperitoneal injection 600 mg/kg single, CDK inhibitor oral 100 mg/kg single, 24 h before, cycle 8 days) | Relative remission rate of oral administration ([2]; Example 402, Gemcitabine (GEM) intramuscular injection 120 mg/kg single, CDK inhibitor oral 50 mg/kg single, 24 h before, cycle 8 days) | Relative remission rate ([3]; Example 236, Doxorubicin (Dox) intravenous injection 12 mg/kg single, CDK inhibitor oral 180 mg/kg single, 1 h before, cycle 10 days) | Relative remission rate ([3]; Example 258, Cytarabine (Ara-C) intraperitoneal injection 600 mg/kg single, CDK inhibitor oral 100 mg/kg single, 24 h before, cycle 8 days)
